Entries after “also recorded” stand apart in the source; their conditions may differ.
Assays:
[1] = test system: CML chronic phase; conditions: cited from earlier work; for control of the excessive granulopoiesis of CML: human, in vivo; for median survival: standard approach to treatment of CML chronic phase
[2] = test system: nucleic acid synthesis in both normal and leukemic cells; conditions: cited from earlier work
[3] = test system: chronic phase CML; conditions: cited from earlier work
[4] = test system: cells of CML patients in blast crisis, K-28 (b3a2) type junction; test: Colony formation of CML blast crisis patient cells expressing the b3a2 (K-28) junction; assay type: cell-based, human; conditions: for Number of Colonies, Antisense-treated: conditions of Example 1
Text: To identify CML blast crisis patients carrying the second common type junction, in which bcr exon 3 is juxtaposed to c-abl exon 2, total RNA derived from cells of CML patients in blast crisis was reverse-transcribedwith synthetic primers. The 3' primer (SEQ ID NO:10) was complementary to 22 nucleotides of c-abl. exon 2. The 5' primer was the 22-mer GTCATCGTCCACTCAGCCACTG (SEQ ID NO:12) complementary to 22 nucleotides of bcr exon 3. The RNA was amplified by polymerase chain reaction according to Example 1. The amplification products were then hybridized with the synthetic 18-mer oligonucleotide GAAGGGCTTT TGAACTCT (SEQ ID NO:6), which is complementary to the b3a2 junction. After cloning of breakpoints in two patients, sequence analysis of several clones identified the b3a2 junction as precisely corresponding to the K-28 breakpoint shown in FIG. 3. (SEQ ID NO:4).
Utilizing the culture condition and oligomer treatment conditions of Example 1, cells were exposed to either no oligomer (FIG. 4A), the 18-nucleotide synthetic oligomer GAAGTGCTGT TGAACTCT (SEQ ID NO:5) partially complementary to the b3a2 junction, containing 9 nucleotides corresponding to bcr and 9 nucleotides corresponding to c-abl but with two mismatches (FIG. 4B); or the 18-nucleotide synthetic oligomer GAAGGGCTTT TGAACTCT (SEQ ID NO:6) completely complementary to the same bcr-abl junction (FIG. 4C).

[5] = test system: BV173 cells (b2/a2); test: Proliferation of BV173 cells expressing b2a2 junction; assay type: cell-based, human; conditions: in comparison to untreated control cells (FIG. 7)
Procedure: Amplification of the bcr-abl junction with a 5' primer corresponding to bcr exon 2, and a 3' primer corresponding to abl exon 2, followed by hybridization to an 18-mer specific for the b2/a2 or the b3/a2 junction identified the b2/a2 breakpoint in these cells (data not shown).
The sensitivity of the BV173 cells to b2/a2 antisense phosphorothioate oligodeoxynucleotides was assessed. Phosphorothioate oligodeoxynucleotides were prepared on either an Applied Biosystems Model 380B or 390Z Automated Synthesis instrument using conventional phosphoramidite monomers and manufacturer-recommended procedures, which included substitution of tetraethylthiuran (or an equivalent sulfur-donor reagent) for iodine-water-pyridine, […] reversed-phase preparative chromatography, detritylation, and obtaining the final product in the form of its sodium salt, all according to previously published methodology: Zon and Stec, in Oligonucleotides and Analogues A Practical Approach, F. Eckstein, Ed. (Oxford Univerisity Press, Oxford 1991), pp. 87-108; Zon and Geiser, Anti-Cancer Drug Design 6, 539 (1991); Vu and Hirschenbein, Tetrahedron Lett. 32, 3005-3008 (1991).
BV173 cells were cultured in the presence of phosphorothioate b2/a2 antisense 26-mer CGCTGAAGGG CTTCTTCCT ATTGAT (SEQ ID NO:29), the phosphorothioate sense sequence ATCAATAAGGAAGCCCTTCAGCG (SEQUENCE ID NO:34), or the b3/a2 (SEQ ID NO:31) or b1/a2 (SEQ ID N0:33) phosphorothioate antisense 26-mer. […] The sense oligomer SEQ ID NO:34 gave no inhibition (FIG. 7, -.largecircle.-) in comparison to untreated control cells (FIG. 7, -.quadrature.-).

[6] = alpha-interferon treated CML patients

For CS(=O)(=O)OCCCCOS(C)(=O)=O [busulfan], the “control of the excessive granulopoiesis of CML” value [1] is listed as “useful in the control of the excessive granulopoiesis of CML”, the median survival [1] is listed as “about 47 months” and the “inhibition of nucleic acid synthesis” value [2] is listed as “inhibit nucleic acid synthesis in both normal and leukemic cells; also recorded: inhibit nucleic acid synthesis both in normal and leukemic cells”.
In the case of NC(=O)NO [hydroxyurea], the “control of the excessive granulopoiesis of CML” value [1] is given as “useful in the control of the excessive granulopoiesis of CML”, the median survival [1] is given as “about 47 months” and the “inhibition of nucleic acid synthesis” value [2] is given as “inhibit nucleic acid synthesis in both normal and leukemic cells; also recorded: inhibit nucleic acid synthesis both in normal and leukemic cells”.
In the case of Alpha-interferon, the “patients with normalization of the blood count” value ([3]; 3-9 million units intramuscularly each day, chronic phase CML) is listed as “about three quarters”, the side effects ([3]; CML patients) is listed as “fever, anorexia, muscle and bone pain, depression, and often immune thrombocytopenia” and the “patients with a decrease in Ph1-chromosome-containing metaphases” value [3, 6] is listed as “more than one third”. For the same molecule, the “treated patients having fewer than 5% Ph1-positive cells” value [3, 6] was “about 15%” and the “specificity of effect on leukemic clone” value ([3]; human, in vivo) was “non-specific, as indicated by the persistence of Ph^1 leukemic cells and the inhibition of normal hematopoietic cell growth”.
For “SEQ ID NO:6: 18-nucleotide synthetic oligomer GAAGGGCTTT TGAACTCT completely complementary to the b3a2 (K-28) junction (antisense GAAGGGCTTTTGAACTCT; further chemistry not given here)”, the “Number of Colonies, Antisense-treated” value ([4]; Table 2, patient 1, untreated 278 ± 28) was 102 ± 14 colonies, the “Number of Colonies, Antisense-treated” value ([4]; Table 2, patient 2, untreated 182 ± 18) was 68 ± 12 colonies and the “% Inhibition” value ([4]; Table 2, patient 2, number of colonies vs untreated) was 63%.
With “SEQ ID NO:31: b3/a2 phosphorothioate antisense 26-mer CGCTGAAGGGCTT TTGAA&TCTGCTT (antisense CGCTGAAGGGCTTTTGAACTCTGCTT; all phosphorothioate, sugars by position and methylation of C not given here)” the “inhibition of proliferation of BV173 cells” value [5] was “Only the b2/a2 antisense oligodeoxynucleotide inhibited the proliferation of BV173 cells”.
With “SEQ ID NO:33: b1/a2 phosphorothioate antisense 26-mer CGCTGAAGGGCTT CTGCGTCTCCATG (antisense CGCTGAAGGGCTTCTGCGTCTCCATG; all phosphorothioate, sugars by position and methylation of C not given here)” the “inhibition of proliferation of BV173 cells” value [5] was “Only the b2/a2 antisense oligodeoxynucleotide inhibited the proliferation of BV173 cells”.

Source: patent US5652222A, “Selective inhibition of leukemic cell proliferation by bcr-abl antisense oligonucleotides” (Temple University-of The Commonwealth System of Higher …, priority 1993, dated 1997)
